Patent US20250171451A1, “NOVEL HETEROCYCLIC COMPOUND AND PHARMACEUTICAL COMPOSITION COMPRISING SAME” (Samjin Pharmaceutical Co., Ltd., priority 2022, published 2025)

Assays:
[1] = molecular target: T1, recombinant GST-TEAD1 proteins (209 to 426 a.a.) (Homo sapiens, UniProt P28347); assay: Evaluation of palmitoylation of TEAD protein; assay type: biochemical; settings: 5 μM compound, 15 minutes preincubation, 3 μM alkyne palmitoyl-CoA 30 minutes, pH 6.4, vs DMSO control
T1 construct: recombinant GST-TEAD1 proteins (209 to 426 a.a.)
T1 sequence (P28347 209-426): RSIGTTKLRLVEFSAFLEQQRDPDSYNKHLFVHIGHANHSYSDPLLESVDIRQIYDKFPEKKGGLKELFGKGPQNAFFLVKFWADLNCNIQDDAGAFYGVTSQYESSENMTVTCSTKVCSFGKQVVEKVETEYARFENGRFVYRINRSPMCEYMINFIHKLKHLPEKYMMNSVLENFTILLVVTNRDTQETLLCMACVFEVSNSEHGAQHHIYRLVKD
Method: Each compound corresponding to a concentration of 5 μM was added to recombinant GST-TEAD1 proteins (209 to 426 a.a.) and cultured for 15 minutes. For an autopalmitoylation reaction of proteins after culturing, 3 μM alkyne palmitoyl-CoA (Cayman chemical) and 50 mM MES buffer (pH 6.4) were added and cultured for 30 minutes, after which 1% of sodium dodecyl sulfate (SDS) was added to stop the reaction. After that, biotinylation was performed through a CLICK (Click chemistry tools) reaction, and then a protein solution was concentrated to prepare a sample.
Analysis of the sample was performed using SDS-PAGE and streptavidin HRP (Thermo scientific). The resulting values were quantified using an Image J (NIH). For the intensity of the band obtained from Streptavidin blot, a palmitoylation inhibitory activity was analyzed based on the control group (DMSO). The normalization of each sample was performed using an anti-GST (91G1) (cell signaling) antibody.

[2] = tested on: TEAD response element (TRE) luciferase reporter in MCF-7 cell lines; assay: TEAD response element (TRE) reporter assay; assay type: cell-based; settings: Homo sapiens, MCF7; 0.2 μM compound, 24 hours, MCF-7 TEAD reporter cells, relative to vehicle (1% DMSO)
Method: MCF-7 cell lines injected with TEAD reporter genes expressing firefly luciferase upon activation of TEAD response element (TRE) were obtained from BPS bioscience (#60618). The TEAD reporter genes were injected to stable expression in the MCF-7 cell lines.
TEAD reporter genes expressing firefly luciferase upon activation of TEAD response element (TRE) were injected with TEAD reporter genes to ensure stable expression of the TEAD reporter genes. Here, the TEAD reporter genes expresses firefly luciferase upon activation of TEAD response element (TRE). The cells were cultured in a cell-only culture medium (BPS bioscience) to which 10 μg/mL insulin (Sigma) was added at 37° C. and 5% CO2.
In 24 hours after dispensing said cells into a 96-well plate, each of the compounds of the examples or a vehicle solvent (final 1% DMSO) was treated by being diluted with a serum-free culture medium so that the final concentration became 0.2 μM. In 24 hours after said treatment, a luciferase assay working solution (ONE-Step Luciferase assay reagent; BPS bioscience) containing a luciferase substrate was treated in each well at 100 μL, and then left in a shaker for 15 minutes to be well mixed. Then, a degree of luminescence generated by luciferase expressed according to TEAD activation was measured by a microplate reader (TECAN). A relative activity of luciferase […], and the results are shown in table 8 below.

| inhibition at 5 µM [1] [%] | Structure (SMILES) | inhibition at 0.2 µM [2] [%] |
| --- | --- | --- |
| 40 to 80 | C=CC(=O)Nc1cnc2c(c1)c(C)nn2-c1ccc(Cl)c(Cl)c1 [Compound 96, N-(1-(3,4-dichlorophenyl)-3-methyl-1H-pyrazolo[3,4-b]pyridin-5-yl)acrylamide] | > 50 |
| < 40 | C=CC(=O)Nc1ncc2c(C)nn(Cc3ccc(C(F)(F)F)cc3)c2n1 [Compound 20, N-(3-methyl-1-(4-(trifluoromethyl)benzyl)-1H-pyrazolo[3,4-d]pyrimidin-6-yl)acrylamide] | < 30 |
| < 40 | C=CC(=O)Nc1cnc2c(c1)c(C)nn2-c1ccnc(C(F)(F)F)c1 [Compound 100, N-(3-methyl-1-(2-(trifluoromethyl)pyridin-4-yl)-1H-pyrazolo[3,4-b]pyridin-5-yl)acrylamide] | > 50 |
| < 40 | CC=CC(=O)Nc1cnc2c(c1)c(C)cn2CCCC [Compound 23, N-(1-butyl-3-methyl-1H-pyrrolo[2,3-b]pyridin-5-yl)but-2-enamide] | < 30 |
| 40 to 80 | C=CC(=O)Nc1cnc2c(c1)c(C)cn2Cc1ccc(C(F)(F)F)s1 [Compound 63, N-(3-methyl-1-((5-(trifluoromethyl)thiophen-2-yl)methyl)-1H-pyrrolo[2,3-b]pyridin-5-yl)acrylamide] | 30 to 50 |
| 40 to 80 | C=CC(=O)Nc1cnc2c(c1)c(C)nn2CC1CCC(F)(F)CC1 [Compound 14, N-(1-((4,4-difluorocyclohexyl)methyl)-3-methyl-1H-pyrazolo[3,4-b]pyridin-5-yl)acrylamide] | > 50 |
| < 40 | CC=CC(=O)Nc1cnc2c(c1)c(C)cn2Cc1ccc(C(F)(F)F)cc1 [Compound 21, N-(3-methyl-1-(4-(trifluoromethyl)benzyl)-1H-pyrrolo[2,3-b]pyridin-5-yl)but-2-enamide] | < 30 |
| > 80 | C=CC(=O)Nc1cnc2c(ccn2Cc2ccc(C(F)(F)F)cc2)c1OC [Compound 18, N-(4-methoxy-1-(4-(trifluoromethyl)benzyl)-1H-pyrrolo[2,3-b]pyridin-5-yl)acrylamide] | 30 to 50 |
| 40 to 80 | C=CC(=O)Nc1cnc2c(c1)c(C)nn2-c1cnc(C(F)(F)F)c(C)c1 [Compound 99, N-(3-methyl-1-(5-methyl-6-(trifluoromethyl)pyridin-3-yl)-1H-pyrazolo[3,4-b]pyridin-5-yl)acrylamide] | > 50 |
| 40 to 80 | C=CC(=O)Nc1ccc2c(c1)CCN2c1ccc(C(F)(F)F)cc1 [Compound 39, N-(1-(4-(trifluoromethyl)phenyl)indolin-5-yl)acrylamide] | 30 to 50 |
| > 80 | C=CC(=O)Nc1cnc2c(c1)c(C)cn2CC1CCCC1 [Compound 9, N-(1-(cyclopentylmethyl)-3-methyl-1H-pyrrolo[2,3-b]pyridin-5-yl)acrylamide] | > 50 |
| 40 to 80 | C=CC(=O)Nc1cnc2c(c1)c(C)nn2-c1cc(F)cc(F)c1 [Compound 76, N-(1-(3,5-difluorophenyl)-3-methyl-1H-pyrazolo[3,4-b]pyridin-5-yl)acrylamide] | 30 to 50 |
| 40 to 80 | C=CC(=O)Nc1cnc2c(c1)c(C)nn2-c1cccc(C(F)(F)F)c1 [Compound 52, N-(3-methyl-1-(3-(trifluoromethyl)phenyl)-1H-pyrazolo[3,4-b]pyridin-5-yl)acrylamide] | > 50 |
| 40 to 80 | C=CC(=O)Nc1cnc2c(cnn2CC2CCC(F)(F)CC2)c1 [Compound 11, N-(1-((4,4-difluorocyclohexyl)methyl)-1H-pyrazolo[3,4-b]pyridin-5-yl)acrylamide] | 30 to 50 |
| < 40 | C=CC(=O)Nc1cnc2c(c1)c(C)nn2-c1ccc(O)cc1 [Compound 98, N-(1-(4-hydroxyphenyl)-3-methyl-1H-pyrazolo[3,4-b]pyridin-5-yl)acrylamide] | < 30 |
| < 40 | C=CC(=O)Nc1cnc2c(c1)c(C)nn2-c1cccnc1 [Compound 94, N-(3-methyl-1-(pyridin-3-yl)-1H-pyrazolo[3,4-b]pyridin-5-yl)acrylamide] | < 30 |
| 40 to 80 | C=CC(=O)Nc1cnc2c(c1)c(C)nn2-c1ccc(C(F)(F)F)c(C)c1 [Compound 74, N-(3-methyl-1-(3-methyl-4-(trifluoromethyl)phenyl)-1H-pyrazolo[3,4-b]pyridin-5-yl)acrylamide] | > 50 |
| < 40 | C=CC(=O)Nc1cnc2c(c1)c(C)nn2-c1ccc(F)cc1 [Compound 70, N-(1-(4-fluorophenyl)-3-methyl-1H-pyrazolo[3,4-b]pyridin-5-yl)acrylamide] | 30 to 50 |
| > 80 | C=CC(=O)Nc1ccc2c(Br)nn(Cc3ccc(C(F)(F)F)cc3)c2c1 [Compound 38, N-(3-bromo-1-(4-(trifluoromethyl)benzyl)-1H-indazol-6-yl)acrylamide] | 30 to 50 |
| 40 to 80 | C=CC(=O)Nc1cnc2ncn(Cc3ccc(C(F)(F)F)cc3)c2c1 [Compound 30, N-(1-(4-(trifluoromethyl)benzyl)-1H-imidazo[4,5-b]pyridin-6-yl)acrylamide] | < 30 |
| – | C=CS(=O)(=O)Nc1cnc2ncn(-c3ccc(C4CCCCC4)cc3)c2c1 [Compound 1, N-(1-(4-cyclohexylphenyl)-1H-imidazo[4,5-b]pyridin-6-yl)ethenesulfonamide] | < 30 |
| 40 to 80 | C=CC(=O)Nc1cnc2c(cnn2-c2ccc(C(F)(F)F)cc2)c1 [Compound 35, N-(1-(4-(trifluoromethyl)phenyl)-1H-pyrazolo[3,4-b]pyridin-5-yl)acrylamide] | > 50 |
| 40 to 80 | C=CC(=O)Nc1cnc2c(c1)c(C)nn2CCC(C)C [Compound 48, N-(1-isopentyl-3-methyl-1H-pyrazolo[3,4-b]pyridin-5-yl)acrylamide] | > 50 |
| 40 to 80 | C=CC(=O)Nc1cnc2c(c1)c(C)nn2-c1ccc(C(F)(F)F)c(Cl)c1 [Compound 72, N-(1-(3-chloro-4-(trifluoromethyl)phenyl)-3-methyl-1H-pyrazolo[3,4-b]pyridin-5-yl)acrylamide] | 30 to 50 |
| < 40 | C=CC(=O)Nc1cnc2c(cnn2Cc2ccc(C(F)(F)F)cc2)n1 [Compound 16, N-(1-(4-(trifluoromethyl)benzyl)-1H-pyrazolo[3,4-b]pyrazin-5-yl)acrylamide] | > 50 |
| 40 to 80 | C=CC(=O)Nc1cnc2c(n1)c(C)nn2Cc1ccc(C(F)(F)F)cc1 [Compound 31, N-(3-methyl-1-(4-(trifluoromethyl)benzyl)-1H-pyrazolo[3,4-b]pyrazin-5-yl)acrylamide] | > 50 |
| – | C=CC(=O)Nc1cnc2ncn(-c3ccc(C4CCCCC4)cc3)c2c1 [Compound 2, N-(1-(4-cyclohexylphenyl)-1H-imidazo[4,5-b]pyridin-6-yl)acrylamide] | < 30 |

| Structure (SMILES) | inhibition at 5 µM [1] [%] | inhibition at 0.2 µM [2] [%] |
| --- | --- | --- |
| C=CC(=O)Nc1cnc2c(c1)c(C)nn2-c1ccc(OCC(C)C)cc1 [Compound 78, N-(1-(4-isobutoxyphenyl)-3-methyl-1H-pyrazolo[3,4-b]pyridin-5-yl)acrylamide] | 40 to 80 | < 30 |
